# Key:
# [1] = test system: MT4; experiment: Compound was tested for its anti HIV-1 activity in MT-4 cells up to 2 uM concentration; No activity against HIV-l virus replication.; type: functional, cell-based, Homo sapiens
# [2] = test system: MT4; experiment: Compound was tested for its anti HIV-1 activity in MT-4 cells.; type: functional, cell-based; details: Homo sapiens
Structure (SMILES),IC50 [1],IC50 [2] [nM]
CC(C)=CCN1Cc2ncnc3nc(O)n(c23)CC1C (configuration not stated),Not Active,–
CC(C)=CCN1Cc2cc(Cl)cc3[nH]c(=S)n(c23)C[C@@H]1C,–,42

# Source: ChEMBL document CHEMBL1152045, “Synthesis of the pyrimidine analog of 4,5,6,7-tetrahydroimidazo[4,5,1-jk][1,4]benzodiazepin-2(1H)one (TIBO) potential for HIV-1 inhibition” (Bioorg Med Chem Lett, 1991)
